Test system: Geobacillus stearothermophilus
Test: Lethality study of NO2 external sterilization on spiked pre-filled syringes
Type: cell-based
Method: At least some of the backstops illustrated in the figures were tested in a lethality study. For example, pre-filled syringes were “spiked” with between 1×10^6 and 6×10^6 CFU (e.g., between 1,000,000 and 6,000,000 CFU) of Geobacillus stearothermophilus before sterilization cycles. As a more specific example, the backstop and barrel portions of the prefilled syringes were spiked with the 1-6×10^6 CFU of Geobacillus stearothermophilus. As used herein, the term “CFU” refers to “Colony-Forming Unit”, which is a unit used to estimate the number of viable bacteria or fungal cells in a sample (where “viable” is the ability to multiply via binary fission under controlled conditions). Geobacillus stearothermophilus (previously Bacillus stearothermophilus) is a rod-shaped, gram-positive bacterium and a member of the division Firmicutes. The bacterium is a thermophile and is widely distributed in soil, hot springs, ocean sediment, and is a potential cause of spoilage in food products. The spiked pre-filled syringes were then sterilized using various sterilization parameters to measure the lethality of the sterilization process to evaluate the Sterility Assurance Level (SAL). The pre-filled syringes were spiked with biological indicators or direct inoculation, as is discussed in more detail below.
For each recipe number, five samples (or at least 5 test locations on one or more samples) were tested. […] For example, the target lethality for this test was a Sterility Assurance Level (SAL) of […]. In other words, the target lethality for this test was 6 logs reduction in the number of bacteria present (before sterilization vs. after sterilization). As a more specific example, for Recipe Number 1, one of the five samples tested reached this target lethality for the backstop area (Col. “Spiked Backstop”, row corresponding with Recipe Number 1), but all five of the samples tested reached this target lethality for the barrel area (Col. “Spiked Barrel”, row corresponding with Recipe Number 1). It should be noted that the spiked backstop test results for Recipe Nos. 1-4 (utilizing the backstop 20 shown in FIGS. 2A-2H) were tested via direct inoculation whereas the spiked backstop test results for Recipe Nos. 5-14 (utilizing alternative backstop 120) were tested via biological indicators. It also should be noted that “-” symbols indicate that no data is reported for those parameters/samples. The testing method variance aside, the samples tested utilizing backstops with protrusions achieved target lethality at a much higher rate than the samples utilizing the backstop without protrusions. As discussed above, the ridges minimize and/or prevent occluded spaces and instead permit the sterilization agent to completely or substantially reach various components of the pre-filled syringe, particularly the backstop and flange areas.

What does the source list for `[O]N=O` [NO2, Nitrogen Dioxide]?
Spiked Barrel: samples out of 5 reaching target lethality (6 logs reduction) (Recipe 1: 100 Torr, NO2 10 mg/L, 75% RH, dwell 10 min, 2 pulses, 24 aerations, PFS with backstop 20): 5/5; Spiked Backstop: samples out of 5 reaching target lethality (6 logs reduction) (Recipe 1: 100 Torr, NO2 10 mg/L, 75% RH, dwell 10 min, 2 pulses, 24 aerations, backstop 20, direct inoculation): 1/5; Spiked Barrel: samples out of 5 reaching target lethality (6 logs reduction) (Recipe 2: 300 Torr, NO2 10 mg/L, 75% RH, dwell 10 min, 2 pulses, 35 aerations, PFS with backstop 20): 5/5; Spiked Backstop: samples out of 5 reaching target lethality (6 logs reduction) (Recipe 2: 300 Torr, NO2 10 mg/L, 75% RH, dwell 10 min, 2 pulses, 35 aerations, backstop 20, direct inoculation): 0/5; Spiked Barrel: samples out of 5 reaching target lethality (6 logs reduction) (Recipe 3: 100 Torr, NO2 20 mg/L, 80% RH, dwell 20 min, 4 pulses, 24 aerations, PFS with backstop 20): 5/5; Spiked Backstop: samples out of 5 reaching target lethality (6 logs reduction) (Recipe 3: 100 Torr, NO2 20 mg/L, 80% RH, dwell 20 min, 4 pulses, 24 aerations, backstop 20, direct inoculation): 0/5; Spiked Barrel: samples out of 5 reaching target lethality (6 logs reduction) (Recipe 4: 20 Torr, NO2 10 mg/L, 80% RH, dwell 10 min, 4 pulses, 35 aerations, PFS with backstop 20): 5/5; Spiked Backstop: samples out of 5 reaching target lethality (6 logs reduction) (Recipe 4: 20 Torr, NO2 10 mg/L, 80% RH, dwell 10 min, 4 pulses, 35 aerations, backstop 20, direct inoculation): 2/5; Spiked Barrel: samples out of 5 reaching target lethality (6 logs reduction) (Recipe 5: 20 Torr, NO2 10 mg/L, 75% RH, dwell 10 min, 8 pulses, 28 aerations, PFS with alternative backstops): 5/5; Spiked Backstop: samples out of 5 reaching target lethality (6 logs reduction) (Recipe 5: 20 Torr, NO2 10 mg/L, 75% RH, dwell 10 min, 8 pulses, 28 aerations, alternative backstops, biological indicators): 5/5; Spiked Backstop: samples out of 5 reaching target lethality (6 logs reduction) (Recipe 6: 20 Torr, NO2 20 mg/L, 80% RH, dwell 20 min, 4 pulses, 24 aerations, alternative backstops, biological indicators): 5/5; Spiked Backstop: samples out of 5 reaching target lethality (6 logs reduction) (Recipe 7: 20 Torr, NO2 10 mg/L, 80% RH, dwell 20 min, 4 pulses, 24 aerations, alternative backstops, biological indicators): 5/5; Spiked Backstop: samples out of 5 reaching target lethality (6 logs reduction) (Recipe 8: 20 Torr, NO2 10 mg/L, 80% RH, dwell 10 min, 4 pulses, 24 aerations, alternative backstops, biological indicators): 5/5; Spiked Backstop: samples out of 5 reaching target lethality (6 logs reduction) (Recipe 9: 20 Torr, NO2 10 mg/L, 80% RH, dwell 10 min, 2 pulses, 24 aerations, alternative backstops, biological indicators): 5/5; Spiked Barrel: samples out of 5 reaching target lethality (6 logs reduction) (Recipe 10: 20 Torr, NO2 10 mg/L, 80% RH, dwell 10 min, 1 pulse, 24 aerations, PFS with alternative backstops): 5/5; Spiked Backstop: samples out of 5 reaching target lethality (6 logs reduction) (Recipe 10: 20 Torr, NO2 10 mg/L, 80% RH, dwell 10 min, 1 pulse, 24 aerations, alternative backstops, biological indicators): 5/5; Spiked Barrel: samples out of 5 reaching target lethality (6 logs reduction) (Recipe 11: 20 Torr, NO2 5 mg/L, 80% RH, dwell 10 min, 1 pulse, 24 aerations, PFS with alternative backstops): 4/5; Spiked Backstop: samples out of 5 reaching target lethality (6 logs reduction) (Recipe 11: 20 Torr, NO2 5 mg/L, 80% RH, dwell 10 min, 1 pulse, 24 aerations, alternative backstops, biological indicators): 5/5; Spiked Barrel: samples out of 5 reaching target lethality (6 logs reduction) (Recipe 12: 20 Torr, NO2 5 mg/L, 80% RH, dwell 10 min, 2 pulses, 24 aerations, PFS with alternative backstops): 5/5; Spiked Backstop: samples out of 5 reaching target lethality (6 logs reduction) (Recipe 12: 20 Torr, NO2 5 mg/L, 80% RH, dwell 10 min, 2 pulses, 24 aerations, alternative backstops, biological indicators): 5/5; Spiked Barrel: samples out of 5 reaching target lethality (6 logs reduction) (Recipe 13: 20 Torr, NO2 5 mg/L, 80% RH, dwell 5 min, 2 pulses, 24 aerations, PFS with alternative backstops): 5/5; Spiked Backstop: samples out of 5 reaching target lethality (6 logs reduction) (Recipe 13: 20 Torr, NO2 5 mg/L, 80% RH, dwell 5 min, 2 pulses, 24 aerations, alternative backstops, biological indicators): 5/5; Spiked Barrel: samples out of 5 reaching target lethality (6 logs reduction) (Recipe 15: 500 Torr, NO2 5 mg/L, 80% RH, dwell 5 min, 2 pulses, 70 aerations, PFS with alternative backstops): 5/5; Spiked Backstop: samples out of 5 reaching target lethality (6 logs reduction) (Recipe 15: 500 Torr, NO2 5 mg/L, 80% RH, dwell 5 min, 2 pulses, 70 aerations, alternative backstops, biological indicators): 5/5

From patent publication US12233177B2, “Method for external sterilization of drug delivery device” (AMGEN INC., priority 2019, dated 2025)
